Publication PMC11042245, “Discovery of novel SOS1 inhibitors using machine learning” (RSC Medicinal Chemistry, 2024)

Biological target: T1, KRAS G12C/SOS1 (Homo sapiens, UniProt Q07889)
T1 construct: purchased Cytoskeleton (SOS1); AntibodySystem (KRAS G12C)
T1 sequence (Q07889 564-1049 limits assumed): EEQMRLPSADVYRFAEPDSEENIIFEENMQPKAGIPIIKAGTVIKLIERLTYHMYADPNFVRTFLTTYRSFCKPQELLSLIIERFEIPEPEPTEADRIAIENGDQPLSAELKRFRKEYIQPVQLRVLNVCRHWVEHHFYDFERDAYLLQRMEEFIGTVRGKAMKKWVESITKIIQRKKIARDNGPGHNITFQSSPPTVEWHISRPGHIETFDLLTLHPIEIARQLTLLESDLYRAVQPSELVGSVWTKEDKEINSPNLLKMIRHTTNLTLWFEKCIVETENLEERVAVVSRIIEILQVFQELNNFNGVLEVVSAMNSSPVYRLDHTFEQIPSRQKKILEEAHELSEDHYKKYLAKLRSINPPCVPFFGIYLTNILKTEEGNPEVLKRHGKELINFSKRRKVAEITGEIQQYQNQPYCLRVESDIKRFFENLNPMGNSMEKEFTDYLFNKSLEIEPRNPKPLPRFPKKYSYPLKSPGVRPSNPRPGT
Assay: KRAS G12C/SOS1 PPI homogeneous time-resolved fluorescence (HTRF) assay
Format: binding
Conditions: converted from μg mL^−1; read-out: IC50 calculated using the molecular weight of each compound
Procedure: All the test compounds were provided by the CNCL (https://www.cncl.org.cn/). […] The percentage inhibition was calculated by comparison with the buffer control group. The IC50 value was calculated by GraphPad Prism software in inhibitor versus normalized response (variable slope) mode.

| Compound | IC50 |
| --- | --- |
| Cc1ccc(S(=O)(=O)Nc2cnc(N3CCCC3)c(C(=O)O)c2)c(C)c1 [CL01545355] | 94.6 µM |
| CC(C)c1ccc(S(=O)(=O)Nc2cnc(N3CCCC3)c(C(=O)O)c2)cc1 [CL01545365] | 53.7 µM |
| Cc1ccc(S(=O)(=O)Nc2cnc(N3CC=C(c4ccccc4C)CC3)c(C(=O)O)c2)c(C)c1 [CL01545444] | 103 µM |
| Cc1ccccc1C1=CCN(c2ncc(NS(=O)(=O)c3ccc(C(C)C)cc3)cc2C(=O)O)CC1 [CL01545464] | 66.3 µM |

Same assay, conditions: dose-response 0.5–50 μg mL^−1; read-out: IC50 (μg mL^−1)

| Compound | IC50 |
| --- | --- |
| Cc1ccc(S(=O)(=O)Nc2cnc(N3CCCC3)c(C(=O)O)c2)c(C)c1 [CL01545355] | 94.6 µM |
| CC(C)c1ccc(S(=O)(=O)Nc2cnc(N3CCCC3)c(C(=O)O)c2)cc1 [CL01545365] | 53.7 µM |
| Cc1ccc(S(=O)(=O)Nc2cnc(N3CC=C(c4ccccc4C)CC3)c(C(=O)O)c2)c(C)c1 [CL01545444] | 103 µM |
| Cc1ccccc1C1=CCN(c2ncc(NS(=O)(=O)c3ccc(C(C)C)cc3)cc2C(=O)O)CC1 [CL01545464] | 66.3 µM |

Same assay, conditions: read-out: Inhibition rate (%)

| Compound | inhibition at 0.5 µg/mL | inhibition at 10 µg/mL | inhibition at 40 µg/mL | inhibition at 50 µg/mL |
| --- | --- | --- | --- | --- |
| Cc1ccc(S(=O)(=O)Nc2cnc(N3CCCC3)c(C(=O)O)c2)c(C)c1 [CL01545355] | -1.6 ± 0.2% | 17.9 ± 3.3% | 53.3 ± 0.5% | 61.6 ± 4% |
| CC(C)c1ccc(S(=O)(=O)Nc2cnc(N3CCCC3)c(C(=O)O)c2)cc1 [CL01545365] | 0.8 ± 1.1% | 31.9 ± 2.8% | 66.6 ± 0.1% | 72.3 ± 2.7% |
| Cc1ccc(S(=O)(=O)Nc2cnc(N3CC=C(c4ccccc4C)CC3)c(C(=O)O)c2)c(C)c1 [CL01545444] | 1.5 ± 1.1% | 14.5 ± 3.3% | 45.5% | 49.9 ± 0.5% |
| Cc1ccccc1C1=CCN(c2ncc(NS(=O)(=O)c3ccc(C(C)C)cc3)cc2C(=O)O)CC1 [CL01545464] | 3.4 ± 1.8% | 24.2 ± 1.4% | 55.3 ± 3.2% | 60.5 ± 4% |

Same assay, conditions: read-out: Inhibition rate at 25 μg mL^−1 (%)

| Compound | inhibition at 25 µg/mL |
| --- | --- |
| CCC(C)NC(=O)c1ccc(Cn2c(=O)c3cc(OC)c(OC)cc3n(Cc3ccccc3F)c2=O)cc1 (centres unmarked) [CL00817024] | 2 ± 0.8% |
| CCOCCCN(C)C1CCN(c2ncc(NC(=O)c3ccc(C)cc3)cc2C(=O)O)CC1 [CL00838284] | 25.3 ± 0.3% |
| CC(C)c1cccc2cc3c(nc12)OCCN(CCc1ccc2c(c1)OCO2)C3 [CL01132463] | -6.5 ± 2.5% |
| Cc1ccc(S(=O)(=O)Nc2cnc(N3CCCC3)c(C(=O)O)c2)c(C)c1 [CL01545355] | 38 ± 3.3% |
| CC(C)c1ccc(S(=O)(=O)Nc2cnc(N3CCCC3)c(C(=O)O)c2)cc1 [CL01545365] | 53.8 ± 1.6% |
| Cc1ccc(S(=O)(=O)Nc2cnc(N3CC=C(c4ccccc4C)CC3)c(C(=O)O)c2)c(C)c1 [CL01545444] | 31.1 ± 1.4% |
| Cc1ccccc1C1=CCN(c2ncc(NS(=O)(=O)c3ccc(C(C)C)cc3)cc2C(=O)O)CC1 [CL01545464] | 42.9 ± 3.4% |

Test system: SOS1
Assay: not given
Conditions: 10% reserved data (Table S3); ref ChEMBL database (version 31); cited from earlier work

| Compound | Actual pChEMBL |
| --- | --- |
| COc1cc2nc(C)nc(N[C@H](C)c3cc(N)cc(C(F)(F)F)c3)c2cc1O[C@H]1CCN(C(C)=O)C1 [CHEMBL4435672] | 8.52 |
| Cc1nc(N[C@H](C)c2cc(N)cc(C(F)(F)F)c2C)c2cc(C3CCS(=O)(=O)CC3)ccc2n1 [CHEMBL4441820] | 8.40 |
| Cc1cccc([C@@H](C)Nc2nc(C)nc3ccc(C4CCS(=O)(=O)CC4)cc23)c1 [CHEMBL4443395] | 7.54 |
| COCC(=O)N1CCC(c2cc3c(N[C@H](C)c4cccc(C)c4)nc(C)nc3cc2C)CC1 [CHEMBL4448274] | 7.47 |
| COc1cc2nc(C)nc(N[C@H](C)c3cc(N)cc(C(F)(F)F)c3)c2cc1C1CCC(C(=O)N2CCOCC2)CC1 (some centres unmarked) [CHEMBL4451252] | 7.60 |
| COc1cc2nc(C)nc(N[C@H](C)c3cccc(C(F)(F)F)c3)c2cc1-c1ccc(C(=O)N(C)CCO)cc1 [CHEMBL4453639] | 7.40 |
| COc1cc2nc(C)nc(N[C@H](C)c3cccc(C)c3)c2cc1-c1ccc(=O)[nH]c1 [CHEMBL4455684] | 7.55 |
| COc1cc2nc(C)nc(N[C@H](C)c3cccc(C(F)(F)F)c3F)c2cc1C1(O)CCC(C(=O)N(C)C)CC1 (some centres unmarked) [CHEMBL4459389] | 8.30 |
| Cc1cccc([C@@H](C)Nc2nc(C)nc3ccc([C@H]4CC[C@H](C(=O)N5CC(C#N)C5)CC4)cc23)c1 [CHEMBL4463184] | 7.44 |
| CONC(=O)CC(C)c1cc2c(N[C@H](C)c3cccc(C(F)(F)F)c3)nc(C)nc2cc1C (some centres unmarked) [CHEMBL4464090] | 8.10 |
| COCC(=O)N1CCC(c2ccc3nc(C)nc(N[C@H](C)c4cc(N)cc(C(F)(F)F)c4)c3c2)CC1 [CHEMBL4469357] | 8.70 |
| Cc1cccc([C@@H](C)Nc2nc(C)nc3cc(C)c(-c4ccc(=O)n(C)c4)cc23)c1 [CHEMBL4473214] | 7.44 |
| COCCN(C)C(=O)C1CCC(c2cc3c(N[C@H](C)c4cc(N)cc(C(F)(F)F)c4)nc(C)nc3cc2OC)CC1 (some centres unmarked) [CHEMBL4513254] | 8.52 |
| COc1cc2nc(C)nc(N[C@H](C)c3cccc(C(F)(F)F)c3)c2cc1-c1ccc(C(=O)N(C)C)cn1 [CHEMBL4515122] | 7.46 |
| CC(=O)N1CCC(O)(c2ccc3nc(C)nc(N[C@H](C)c4cccc(C)c4)c3c2)CC1 [CHEMBL4524954] | 7.85 |
| COc1cc2nc(C)nc(N[C@H](C)c3cccc(C(F)(F)CO)c3)c2cc1C1=CCC(C(=O)N(C)C)CC1 (some centres unmarked) [CHEMBL4529467] | 8.70 |
| Cc1nc(N[C@H](C)c2cccc(C(F)(F)F)c2)c2cc([C@]3(O)CC[C@H](C(=O)N(C)C)CC3)ccc2n1 [CHEMBL4533487] | 7.57 |
| Cc1nc(N[C@H](C)c2cc(N)cc(C(F)(F)F)c2)c2cc(C3CCN(C(=O)CN(C)C)CC3)ccc2n1 [CHEMBL4539190] | 8.52 |
| Cc1nc(N[C@H](C)c2cc(N)cc(C(F)(F)F)c2)c2cc(C3CCC(C(=O)N4CCOCC4)CC3)ccc2n1 (some centres unmarked) [CHEMBL4540213] | 8.70 |
| Cc1nc(N[C@H](C)c2cc(N)cc(C(F)(F)F)c2)c2cc(-c3cnn(CC(=O)N(C)C)c3)ccc2n1 [CHEMBL4546387] | 8.10 |
| CCn1ccc(-c2cc3c(N[C@H](C)c4cc(N)cc(C(F)(F)F)c4)nc(C)nc3cc2C)cc1=O [CHEMBL4551748] | 8.30 |
| Cc1nc(N[C@H](C)c2cc(N)cc(C(F)(F)F)c2)c2cc([C@H]3CC[C@H](C(=O)N(C)C)CC3)c(C)cc2n1 [CHEMBL4554249] | 8.70 |
| Cc1cccc([C@@H](C)Nc2nc(C)nc3ccc(C4CC[S+]([O-])CC4)cc23)c1 (some centres unmarked) [CHEMBL4561965] | 7.66 |
| Cc1nc(N[C@H](C)c2cccc(C(F)(F)F)c2)c2cc(-c3cc4n(n3)CCC(=O)N4)ccc2n1 [CHEMBL4570224] | 7.52 |
| COc1cc2nc(C)nc(N[C@H](C)c3cc(N)cc(C(F)(F)F)c3F)c2cc1O[C@H]1CCOC1 [CHEMBL4572076] | 8.30 |
| COc1cc2nc(C)nc(N[C@H](C)c3cc(N)cc(C(F)(F)F)c3F)c2cc1C1CCC(C(=O)N(C)C)CC1 (some centres unmarked) [CHEMBL4572922] | 7.46 |
| Cc1cccc([C@@H](C)Nc2nc(C)nc3ccc(C4CCOCC4)cc23)c1 [CHEMBL4583745] | 7.37 |

Same assay, conditions: Table 3; cited from earlier work

| Compound | Actual pChEMBL |
| --- | --- |
| CCOc1cc2c(N[C@H](C)c3ccc(F)cc3)nc(C)nc2cn1 [CHEMBL4456281] | 5.03 |
| CC(=O)N[C@@H]1CCN(c2cc3c(NC(C)c4ccc(-c5ccccc5CN(C)C)s4)nc(C)nc3cn2)C1 (some centres unmarked) [CHEMBL4463000] | 7.82 |
| CCOc1cc2c(N[C@H](C)c3ccccc3)nc(C)nc2cn1 [CHEMBL4545109] | 5.69 |
| COc1cc2nc(C)nc(N[C@H](C)c3cccc(C(F)(F)F)c3)c2cc1OC [CHEMBL5084571] | 6.97 |
| COc1cc2nc(C)nc(N[C@H](C)c3cccc(S(N)(=O)=O)c3)c2cc1OC [CHEMBL5085531] | 7.25 |
| COc1cc2nc(C)nc(N[C@H](C)c3ccccc3)c2cc1OC [CHEMBL5087955] | 6.34 |

Same assay, conditions: Table 3; read-out: Actual IC50; cited from earlier work

| Compound | IC50 |
| --- | --- |
| CCOc1cc2c(N[C@H](C)c3ccc(F)cc3)nc(C)nc2cn1 [CHEMBL4456281] | 9.3 µM |
| CC(=O)N[C@@H]1CCN(c2cc3c(NC(C)c4ccc(-c5ccccc5CN(C)C)s4)nc(C)nc3cn2)C1 (some centres unmarked) [CHEMBL4463000] | 0.015 µM |
| CCOc1cc2c(N[C@H](C)c3ccccc3)nc(C)nc2cn1 [CHEMBL4545109] | 2.06 µM |
| COc1cc2nc(C)nc(N[C@H](C)c3cccc(C(F)(F)F)c3)c2cc1OC [CHEMBL5084571] | 0.106 µM |
| COc1cc2nc(C)nc(N[C@H](C)c3cccc(S(N)(=O)=O)c3)c2cc1OC [CHEMBL5085531] | 0.056 µM |
| COc1cc2nc(C)nc(N[C@H](C)c3ccccc3)c2cc1OC [CHEMBL5087955] | 0.453 µM |

Same assay, conditions: external validation data; cited from earlier work

| Compound | Actual pChEMBL value |
| --- | --- |
| Cc1nc(N[C@H](C)c2cccc(C(F)F)c2F)c2cc3c(cc2n1)OC[C@H]1CN(C(=O)C2(C#N)CC2)CCN31 [compound 37] | 8.33 |
